Measurements reported in PMC12313019, “Fibrotic lung ECM upregulates SDC4/integrin-αvβ1 interaction and the interfering peptide SDC4_87-131 and its derivative peptides alleviate pulmonary fibrosis” (Regenerative Biomaterials, 2025).

Experiments:
NIH3T3 cells = assay: RT-PCR of fibroblast activation markers, TGF-β1 and inflammatory factors in dECM-stimulated fibroblast; assay type: cell-based, mouse; settings: for mRNA levels of α-SMA, FN, Col I and TGF-β1: peptide, induced by dECM-Nor and dECM-PF
Method: (§1) Decellularized lung ECM (dECM) was prepared as described in previous study. 2 × 10^5 cells/mL NIH3T3 cells (mouse […], purchased from the Stem Cell Bank of the Chinese Academy of Sciences, Shanghai, China) were seeded on the dECM slices attached to the bottom of the culture dish and cultured in DMEM medium containing 0.5% fetal bovine serum (Gibco, Waltham, MA, USA) at 37°C and 5% CO2.
(§2) Total RNA was extracted from cells or lung tissue (10 mg) using Trizol reagent, and mRNA was reverse transcribed into cDNA using HiScript® II QRT SuperMix for qPCR (Vazyme, #R223-01). Real-time fluorescence quantitative PCR (RT-PCR) was performed using Hieff® qPCR SYB Green Master Mix (YEASEN, #11201ES08) to obtain the Ct value. The 2^−ΔΔCt method was used to obtain the relative expression level of mRNA in each group. Primers (Table 1) were purchased from Sangon Biotech.

integrin-αvβ1 = integrin-αvβ1 (Homo sapiens, UniProt P05556+P06756); assay: SPR binding of peptides to integrin-αvβ1 (Biacore 8K+); settings: Biacore 8K+, 25°C, integrin-αvβ1 on CM5 chip, PBS + 0.05% Tween-20, peptide 0.78-100 μM, Figure 7E, small labels, best readings
Method: The Biacore 8K+ system (GE Healthcare) was used at 25°C. The ligand integrin-αvβ1 (1 mg/mL) was routinely coupled to the sensor chip (Series S Sensor Chip CM5, Cytiva, #100530). The peptide samples SDC4_87-131 and CS-1, -2, -3, -4, -8, -9, -10 were dissolved in PBS, and then, the samples with different concentration gradients (0.78, 1.56, 3.125, 6.25, 12.5, 25, 50, 100 μM) were injected, respectively, under the driving of buffer PBST (PBS + 0.05% Tween-20). The signal intensity was quantified in relative units (RU), and binding affinity was determined using the dissociation constant (Kd). After the experiment, 10 mM glycine-HCl buffer solution (pH = 2) was selected to regenerate the chip surface.

pan-integrins = assay: FN-coating cell adhesion assay (pan-integrins activation); assay type: cell-based, mouse; settings: 100 nM, n=4–5
Method: 10 μg/mL Fibronectin (Merck, #10838039001) was dissolved in serum-free DMEM medium and dropped into a 96-well plate, 50 μL per well. The plate was incubated at 4 °C overnight. After blocking with 3% bovine serum albumin at room temperature for 30 min, 4×10^4 cells were inoculated into each well. After incubation for 30 min, the cells were washed, fixed, and stained with crystal violet (5 mg/mL) for 30 min. Then after the crystal violet was dissolved, it was detected using an ELISA reader at 595 nm.

[1] = system: integrin-αvβ1, FAK/AKT and PKCα/NF-κB pathways in NIH3T3 cells; assay: Western blot of signaling proteins in dECM-stimulated fibroblast; assay type: cell-based, mouse; settings: dECM, n=3; for protein levels of α-SMA, integrin-αv, p-FAK and p-PKCα: designed peptides
Method: as §1
20 mg of lung tissue was extracted with RIPA lysis buffer (Roche International Ltd., Bermuda, USA), and the protein concentration was determined using a BCA protein detection kit (Roche). Protein samples were separated by 10% sodium dodecyl sulfate polyacrylamide gel (SDS-PAGE) electrophoresis and transferred to a PVDF membrane. After blocking, the PVDF membrane was incubated with primary antibodies for α-SMA, Integrin-αV, SDC4, Integrin-β1, p-Smad3, FAK, and p-FAK (CST, #19245, #4711, #12236S, #34971, #9520S, #3285S, and #3284S) at 4°C overnight, followed by incubation with secondary antibodies (CST, #7074P2), development with ECL reagent (SAB), and acquisition of images with a chemiluminescence imaging system (ChemiScope 5600).

fibroblast = assay: CCK-8 fibroblast viability/toxicity; assay type: cell-based, mouse; settings: discussion
Method: as §1
(A) Schematic diagram of SDC487-131; (B) Effect of SDC487-131 and GRGDNP on fibroblast proliferation at 48 h was determined by CCK-8 method (n=3); (C) Effect of different concentration of SDC487-131 on fibroblast activation induced by d-PF for 48 h (n=5). Note: **p < 0.01 vs. PBS in d-Nor group; #p < 0.05 vs. PBS in d-PF group. d-Nor: dECM-Nor; d-PF: dECM-PF.
Figure S14. The viability of fibroblast after treated with peptides for 48 h was detected by CCK-8 assay.

[2] = system: BLM-induced PF, C57BL/6J mice; assay: BLM-induced PF in mice: HE, Masson, hydroxyproline; assay type: in vivo, mouse; settings: 1 mg/kg tracheal instillation
Method: C57BL/6J mice (male, 8-to 9-week old, 18–22 g, SPF grade) were purchased from Shanghai Slake Laboratory Animal Co., Ltd. [SCXK (Hu) 2022-0004, Shanghai, China]. […] The mice were housed in an SPF environment with 22–25°C, 46–65% humidity and 12 h/12 h light-dark alternation, with free access to water and food. This animal experiment was approved by the Experimental Animal Welfare Ethics Committee of Fujian Medical University (No. FJMU IACUC 2021-0465), and was carried out in accordance with the National Research Council's Guide for the Care and Use of Laboratory Animals.
(§3) After the mice were anesthetized (1% sodium pentobarbital 50 mg/kg was injected intraperitoneally), 150 μL of bleomycin (BLM, 5 mg/mL, BIO-000001) was inhaled into the lungs of the mice by tracheal inhalation instillation. One day later, the mice were randomly divided into model and drug treatment groups, and the mice in the control group were only subjected to saline inhalation.
(§4) Based on the dosage of SDC2 fragment peptide and our experimental results (Supplementary Figure S10A and B), the dosage schedule of SDC4_87-131 was set as follows: starting on the third day after BLM inhalation, 1 mg/kg, administered via trachea infusion once every three days. And Anti-SDC4(93-121) 8 mg/kg was administered on the third and tenth days (reference dosage).
Lung tissue samples were paraffin-embedded, then sliced and dewaxed, and HE and Masson staining were performed respectively. After dehydration and sealing, images were collected and analyzed using a microscope.
100 mg of lung tissue was accurately weighed and processed according to the instructions of the hydroxyproline assay kit (Nanjing Jiancheng, Nanjing, China), and the absorbance was measured at a wavelength of 550 nm. The data were expressed as micrograms (µg) of hydroxyproline per mg of dry lung tissue.

[3] = system: BLM-induced PF, C57BL/6J mice; assay: BLM-induced PF in mice: RT-PCR of lung tissue; assay type: in vivo, mouse; settings: 1 mg/kg tracheal instillation, q3d, n=4–6
Method: as §3, §4, §2

Chain of integrin-αvβ1 (P06756 31-992 limits assumed): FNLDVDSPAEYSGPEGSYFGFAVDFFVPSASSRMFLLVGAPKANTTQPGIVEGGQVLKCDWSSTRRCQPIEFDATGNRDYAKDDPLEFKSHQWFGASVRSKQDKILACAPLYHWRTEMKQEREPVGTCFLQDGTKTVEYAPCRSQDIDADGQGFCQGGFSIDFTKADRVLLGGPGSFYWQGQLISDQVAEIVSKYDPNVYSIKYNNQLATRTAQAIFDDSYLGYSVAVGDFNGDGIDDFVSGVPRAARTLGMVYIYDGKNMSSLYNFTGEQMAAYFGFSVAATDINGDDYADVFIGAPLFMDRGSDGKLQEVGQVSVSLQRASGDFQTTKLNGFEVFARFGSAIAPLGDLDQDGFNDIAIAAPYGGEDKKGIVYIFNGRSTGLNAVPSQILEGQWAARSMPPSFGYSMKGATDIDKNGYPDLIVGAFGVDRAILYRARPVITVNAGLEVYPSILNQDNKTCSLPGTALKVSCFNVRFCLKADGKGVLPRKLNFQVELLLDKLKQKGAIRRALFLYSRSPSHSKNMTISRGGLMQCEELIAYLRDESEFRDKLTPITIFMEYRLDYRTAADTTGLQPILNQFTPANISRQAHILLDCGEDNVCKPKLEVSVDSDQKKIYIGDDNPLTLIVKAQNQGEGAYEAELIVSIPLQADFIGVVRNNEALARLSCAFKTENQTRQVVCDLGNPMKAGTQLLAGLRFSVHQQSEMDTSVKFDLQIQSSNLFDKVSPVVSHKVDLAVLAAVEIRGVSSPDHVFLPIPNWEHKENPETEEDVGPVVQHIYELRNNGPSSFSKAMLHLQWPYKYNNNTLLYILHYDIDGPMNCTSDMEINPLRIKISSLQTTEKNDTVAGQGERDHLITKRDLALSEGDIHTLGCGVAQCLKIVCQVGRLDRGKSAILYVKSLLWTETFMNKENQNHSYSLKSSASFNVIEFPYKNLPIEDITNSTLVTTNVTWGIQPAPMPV
Chain of integrin-αvβ1 (P05556 21-728 partner limits assumed): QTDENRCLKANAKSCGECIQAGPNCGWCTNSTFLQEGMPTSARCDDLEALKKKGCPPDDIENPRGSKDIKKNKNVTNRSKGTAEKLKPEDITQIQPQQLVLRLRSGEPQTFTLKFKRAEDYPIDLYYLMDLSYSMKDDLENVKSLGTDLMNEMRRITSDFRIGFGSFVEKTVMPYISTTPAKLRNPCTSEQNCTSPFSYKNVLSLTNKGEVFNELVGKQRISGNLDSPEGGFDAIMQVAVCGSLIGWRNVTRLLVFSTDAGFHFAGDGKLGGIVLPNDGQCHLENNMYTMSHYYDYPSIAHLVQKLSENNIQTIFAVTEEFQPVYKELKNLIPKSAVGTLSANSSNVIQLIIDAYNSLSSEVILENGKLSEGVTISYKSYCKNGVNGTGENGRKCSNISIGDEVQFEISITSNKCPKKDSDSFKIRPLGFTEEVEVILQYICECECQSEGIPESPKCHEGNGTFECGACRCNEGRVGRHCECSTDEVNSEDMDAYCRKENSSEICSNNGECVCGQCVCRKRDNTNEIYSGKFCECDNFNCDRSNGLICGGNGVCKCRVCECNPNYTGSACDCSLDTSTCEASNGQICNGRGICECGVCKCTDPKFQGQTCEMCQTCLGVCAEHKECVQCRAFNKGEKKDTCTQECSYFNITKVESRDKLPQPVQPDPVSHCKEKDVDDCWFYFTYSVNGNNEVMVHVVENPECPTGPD

Molecule	Kd (integrin-αvβ1) [nM]	effects on FN and Col I mRNA vs SDC4_87-131 (NIH3T3 cells; dECM, n=5)	mRNA levels of α-SMA, FN, Col I and TGF-β1 (NIH3T3 cells; n=5)	inhibition of pan-integrins activation vs SDC4_87-131 (pan-integrins)	protein levels of α-SMA, integrin-αv, p-FAK and p-PKCα [1]	other results
CS(=O)(=O)c1cccc(CNc2nc(Nc3ccc4c(c3)CCC(=O)N4)ncc2C(F)(F)F)c1 [PF-573228, reference compound]						dECM-PF-induced fibroblast activation and TGF-β1 upregulation (NIH3T3 cells; 1 μM, 3 μM, mRNA levels, n=4): significantly reduced dECM-PF-induced fibroblast activation and TGF-β1 upregulation in a dose-dependent manner
Ac-GSADPRAVPTEPKKLSPVEESEDITNSTLV-NH2 [CS-10]	35.4	significantly greater than those of SDC4_87-131	significantly downregulate	stronger than that of SDC4_87-131	significantly decrease the protein levels	
Ac-NHIPERAGSGSQVPTEPKKLSPVEESEDRSNKVSM-NH2 [CS-2]	29.1					
Ac-NHIPERAGSGSQVPTEPKKLSPVEESEDVSNKVSMTTNVT-NH2 [CS-1]	12.8					
Ac-NHIPERAGSGSQVPTEPKKLSPVEESEDWSNKVSM-NH2 [CS-3]	64.9	significantly greater than those of SDC4_87-131	significantly downregulate	stronger than that of SDC4_87-131	significantly decrease the protein levels	
Ac-NHIPERAVPTEPKKLSPVEESEDITNSTLV-NH2 [CS-8]	25.9	significantly greater than those of SDC4_87-131	significantly downregulate	stronger than that of SDC4_87-131	significantly decrease the protein levels	
Ac-NHIPERAVPTEPKKLSPVEESEDITNSTLVTTNVT-NH2 [CS-4]	32.3	significantly greater than those of SDC4_87-131	significantly downregulate	stronger than that of SDC4_87-131	significantly decrease the protein levels	reduction of integrin-αv and p-FAK vs SDC4_87-131 [1]: weaker reduction in integrin-αv and p-FAK compared to SDC4_87-131
Ac-NHIPETVEDPEPKKLSPVEESEDITNSTLV-NH2 [CS-9]	10.9	significantly greater than those of SDC4_87-131	significantly downregulate	stronger than that of SDC4_87-131	significantly decrease the protein levels	toxicity (summary) (fibroblast): low toxicity; downregulation of all four mRNAs (α-SMA, FN, Col I, TGF-β1) vs SDC4_87-131 (NIH3T3 cells; dECM, n=5): significantly higher than that of SDC4_87-131; reduction of α-SMA protein vs SDC4_87-131 [1]: stronger reduction in α-SMA than SDC4_87-131; inhibitory effect on collagen deposition vs SDC4_87-131 ([2]; q3d from day 3): significantly stronger inhibitory effect on collagen deposition than SDC4_87-131; anti-PF effect vs SDC4_87-131 ([2]; overall, q3d): significantly enhanced anti-PF effect compared with SDC4_87-131; effects on α-SMA, FN and IL-6 vs SDC4_87-131 [3]: significantly stronger than that of SDC4_87-131
